Measured values published in patent US4623648A, “1-azaxanthone for use as therapeutic agent as an antipyretic, analgesic, anti-inflammatory and bronchodilator” (priority 1981, dated 1986).
In brackets after ≈: the same amount, converted by molar mass.

Columns and labels:
[1] = system: rat paw oedema; assay: Carrageenan rat paw oedema; type: in vivo; details: po, per os, 95% confidence limits 6.0-37.3
Description: (§1) Sprague-Dawley rats, Swiss mice, California rabbits and mongrel guinea pigs and cats were used. 1-azaxanthone was administered as a suspension in 0.5 % w/v of carboxymethyl-cellulose in distilled water for oral and i.p. administration. When administered i.v. or to the nutrient liquid of the isolated tissues, a solution of the compound in isopropylidenglycerol (15 mg/ml) was used.
Carrageenan rat paw oedema (according to C. A. Winter et al., Proc. Soc. Exptl. Biol. N.Y. 1962, 111, 544).

[2] = system: guinea pig; assay: Inhibition of the bronchoconstrictor response to histamine in guinea pig; type: in vivo; details: 8 mg/kg i.v., 5 μg histamine
Description: as §1
Inhibition of the bronchoconstrictor response to histamine in guinea pig (according to H. Konzett and R. Rossler, Arch. Exptl. Path. Pharmak. 1940, 195, 71). 1-azaxanthone (8 mg/kg i.v.) inhibited the response induced by 5 μg of histamine by 100% at 5 min, 67% at 10 min, 50% at 20 min, and 15% at 30 min after administration.

[3] = system: rats; assay: D'Amour and Smith test in rats; type: in vivo; details: oral dose of ca. 100 mg/kg, 1 hour before testing
Description: as §1
"D'Amour and Smith" test in rats (see J. Pharmacol. Exptl. Therap., 1941, 72, 74). An analgesimeter LETICA model 7100 was used. An oral dose of ca. 100 mg/kg of 1-azaxanthone, administered 1 hour before testing produced analgesia in 50% of the animals.

[4] = system: central nervous system; assay: Effect on the central nervous system; type: in vivo, mice and rats
[5] = system: turpentine-induced pleurisy; assay: Turpentine-induced pleurisy; details: in vivo
[6] = system: rabbits; assay: Hyperthermia induced in rabbits by lipopolysaccharide of Escherichia coli, preventive; type: in vivo; details: 0.1 μg/kg lipopolysaccharide
Description: Sprague-Dawley rats, Swiss mice, California rabbits and mongrel guinea pigs and cats were used. 1-azaxanthone was administered as a suspension in 0.5 % w/v of carboxymethyl-cellulose in distilled water for oral and i.p. administration.

[7] = system: abscess; assay: Carrageenan-induced abscess; type: in vivo; details: 50×2 mg/kg per os
Description: as §1
Carrageenan-induced abscess (according to K. F. Benitz and L. M. Hall, Arch. Int. Pharmacodyn. 1963, 144, 185).

[8] = system: rats; assay: Yeast-induced hyperthermia in rats; type: in vivo
Description: as §1
Yeast-induced hyperthermia in rats (according to U. M. Teotino et al., J. Med. Chem. 1963, 6, 248). The test compound was administered by oral route 1 hour before the s.c. injection of the pyrogenic agent.

[9] = system: rats; assay: Chronic administration to rats (92 days); type: in vivo
[10] = system: mice; assay: Charcoal intestinal transit in mice; type: in vivo
Description: as §1
Charcoal intestinal transit in mice. 1-azaxanthone was administered i.p. 1 hour before the oral administration of 0.1 ml/mouse of an active charcoal suspension (10 g of charcoal and 1 g of gum arabicum +70 ml of distilled water). 1.5 hours after the charcoal administration the animals were sacrificed, and the length travelled by the charcoal from the pylorus was measured.

[11] = system: mice; assay: Hot plate test in mice; type: in vivo; details: Mus musculus; oral, 1 hour before; plate 57°±0.5° C.; 95% confidence limits 11-39
Description: as §1
Hot plate test in mice. An analgesimeter LETICA model 7000 was used, the temperature of the plate being maintained at 57°±0.5° C. The test compound was administered by oral route 1 hour before placing the animals on the plate.

[12] = system: rats; assay: Preliminary teratogenesis studies in rats; type: in vivo
[13] = Solubility by the equilibrium (saturation) technique; type: physicochemical; details: 20-25° C.
Description: The solubilities of 1-azaxanthone in several solvents were determined at 20-25° C. by the equilibrium (saturation) technique, measuring the concentration spectrophotometrically at 335 nm or by high pressure liquid chromatography/spectrophotometry. The following values (in mg/ml) were obtained: water: 0.08; 0.1 N HCl: 0.07; 0.1 N NaOH: 0.07; buffer pH 7.4: 0.06; methanol: 7.6; ethanol: 6.2; propyleneglycol: 5.0; ethyl acetate: 20; chloroform: >50; dioxane: 65.

[14] = system: cardiocirculatory system; assay: Effect on the cardiocirculatory system; type: in vivo; details: rats, cats and dogs
[15] = system: granuloma tissue; assay: Cotton-pellet granuloma; type: in vivo; details: 200 mg/kg/day per os, 5 consecutive days
Description: as §1
Cotton-pellet granuloma (according to R. Meier et al., Experientia (Basel), 1950, 6, 469).

## O=c1c2ccccc2oc2ncccc12 [1-azaxanthone]
[1]
  ED50: 21.7 mg/kg
[2]; 5 min after administration
  inhibition of response induced by histamine: 100%
[2]; 10 min after administration
  inhibition of response induced by histamine: 67%
[2]; 20 min after administration
  inhibition of response induced by histamine: 50%
[2]; 30 min after administration
  inhibition of response induced by histamine: 15%
[3]
  animals with analgesia: 50%
[4]; in vivo
  activity on the central nervous system: Clear activity on the central nervous system was not observed
[4]; mice and rats at high doses
  signs of depression: some signs of depression
[5]
  activity in turpentine-induced pleurisy: showed activity
[6]; 100 mg/kg i.p., control increase 1.85° C.
  reduction of the increase in rectal temperature: 0.7 °C
[6]; 200 mg/kg i.p.
  protection against increase in rectal temperature: completely protected the animals
[7]
  inhibition of dry weight of the abscess: 48.4%
  inhibition of wet weight of the abscess: 34.6%
[8]; 0.375 mg/kg, 2nd and 3rd hours
  antipyretic effect: statistically significant antipyretic effect
[8]; 6.2 mg/kg oral, 4 hours after yeast injection (control increase 1.8° C.)
  prevention of hyperthermia: completely prevented the hyperthermia
[8]; 6.2 mg/kg oral, 6 hours after yeast injection (control total increase 1.4° C.)
  decrease of hyperthermia with respect to control increase: 0.8 °C
[9]; 25 mg/kg/day oral
  effect on body weight increase and hematological/serum parameters: without statistically significant effect
[9]; 100 mg/kg/day oral
  alteration of parameters compared to control group: some of these parameters were altered
[9]; oral
  survival: all animals survived
  weights of the main organs: within normal limits
[10]; 4 mg/kg i.p.
  inhibition of charcoal intestinal transit: 15%
[10]; 6.2 mg/kg i.p.
  inhibition of charcoal intestinal transit: 22%
[10]; 12.5 mg/kg i.p.
  inhibition of charcoal intestinal transit: 37%
[10]; doses lower than 4 mg/kg i.p.
  inhibition of charcoal intestinal transit: inactive
[11]
  ED50: 21 mg/kg
[12]
  teratogenic potential: did not show any clear specific teratogenic potential
[13]; 0.1 N HCl
  solubility: 70 µg/mL (≈ 0.355 mM)
[13]; 0.1 N NaOH
  solubility: 70 µg/mL (≈ 0.355 mM)
[13]; aqueous buffer, buffer pH 7.4
  solubility: 60 µg/mL (≈ 0.304 mM)
[13]; organic solvent or mixture, chloroform
  solubility: > 50000 µg/mL
[13]; organic solvent or mixture, dioxane
  solubility: 65000 µg/mL (≈ 330 mM)
[13]; organic solvent or mixture, ethanol
  solubility: 6200 µg/mL (≈ 31.4 mM)
[13]; organic solvent or mixture, ethyl acetate
  solubility: 20000 µg/mL (≈ 101 mM)
[13]; organic solvent or mixture, methanol
  solubility: 7600 µg/mL (≈ 38.5 mM)
[13]; organic solvent or mixture, propyleneglycol
  solubility: 5000 µg/mL (≈ 25.4 mM)
[13]; water
  solubility: 80 µg/mL (≈ 0.406 mM)
[14]
  effect on the cardiocirculatory system: no effect on the cardiocirculatory system
[15]
  inhibition of weight of dried granuloma tissue: 17.4%
  inhibition of weight of wet granuloma tissue: 13.5%
